The text below walks through data of publication PMC8191813 (Antiviral research, 2017).

Data set [1] relates to CCHFV/ZsG. Put plainly: microbe, parasite or virus in culture. The format is cell-based, Crimean-Congo hemorrhagic fever virus.
The subject of data set [2] is wild-type CCHFV. Put plainly: microbe, parasite or virus in culture. The format is cell-based, Crimean-Congo hemorrhagic fever virus. As to conditions: for EC50: Orthonairovirus haemorrhagiae, Huh-7, read-out: EC50 CCHFV.
Data set [3] has as its system Huh7 cells.
The test system of data set [4] is SW13 cells.
Data set [5] in a line: in vitro. The note with it: human.
Data set [6] has as its system rats. The note with it: rat, in vivo; cited from earlier work.
The subject of data set [7] is woodchucks. The note with it: in vivo; cited from earlier work.
Data set [8] deals with CCHFV/ZsG. Put plainly: microbe, parasite or virus in culture. The format is cell-based, Crimean-Congo hemorrhagic fever virus. As to conditions: Orthonairovirus haemorrhagiae, SW13, read-out: EC50 CCHFV/ZsG.
In data set [9] the test system is CCHFV. As to conditions: read-out: previously reported EC50; cited from earlier work.
For data set [10], the system named is CCHF. As to conditions: in vivo; cited from earlier work.
The mark [11] stands for this setting: Orthonairovirus haemorrhagiae, Huh-7, read-out: EC50 CCHFV/ZsG.

Where two headings read alike, the source gives them in different places.

In general, viability refers to a read-out of living cells in per cent, often relative to untreated cells. Lower therefore signals more harm to the cells.

Take `Nc1ccn([C@@H]2O[C@H](CO)[C@@H](O)[C@H]2F)c(=O)n1` [2′-dFC, 2′-deoxy-2′-fluorocytidine]: in [1], the “ZsG fluorescence in initial screen” value is < 30 % of control, the “potency relative to T-705” value was 17 ×, the “potency relative to ribavirin” value is listed as 200 × and the “selectivity index (SI) CCHFV/ZsG” value is reported as 0.061 ± 0.018 (> 820). The EC50 in data set [1] (setting [11]) worked out at 61 nM. In addition, in [2], the “CCHFV titer reduction compared to DMSO only-treated control” value is “approximately 2 logs”, the “selectivity index (SI) CCHFV” value was 0.031 (> 1613), the “virus detection at the highest concentration of compound tested” value (“virus detection” for short) was “no virus detected” and the EC50 was found to be 31 nM. In addition, in [3], the “cytotoxicity, result in words” value was “no cytotoxicity”. Moreover, in data set [4], the “cytotoxicity, result in words” value is recorded as “no associated cytotoxicity”. In addition, in data set [5], the CC50 was greater than 50000 nM and the viability was greater than 80%. For the same molecule, the adverse clinical effects result in data set [6] is on record as “no adverse clinical effects”. Further, the adverse clinical effects entry in data set [7] was “no adverse clinical effects”.

Consider `COc1c(C)c2c(c(O)c1C/C=C(\C)CCC(=O)OCCN1CCOCC1)C(=O)OC2` [MMF, mycophenolate mofetil], for which, in data set [1], the “ZsG fluorescence in initial screen” value was < 30 % of control. For the same molecule, the EC50 in [1] (setting [11]) is 390 ± 130 nM. For the same molecule, the viability in data set [5] is greater than 80%.

Take `COc1c(C)c2c(c(O)c1C/C=C(\C)CCC(=O)O)C(=O)OC2` [Mycophenolic acid, mycophenolic acid]: the “selectivity index (SI) CCHFV/ZsG” value in data set [1] was 0.10 ± 0.01 (18). In addition, the EC50 in [1] (setting [11]) was 100 nM; in [2], 190 nM. Further, in data set [2], the “selectivity index (SI) CCHFV” value is listed as 0.19 (9). The CC50 in [5] amounted to 1780 ± 250 nM.

Turning to `NC(=O)c1ncn([C@@H]2O[C@H](CO)[C@@H](O)[C@H]2O)n1` [Ribavirin, ribavirin], in [1], the “selectivity index (SI) CCHFV/ZsG” value is on record as 12.48 ± 2.61 (> 10). Moreover, the EC50 in [1] (setting [11]) is 12500 ± 2600 nM; in data set [1] (read-out: EC50 CCHFV/ZsG), 12500 nM; in data set [8] it was 5690 ± 710 nM; in data set [2] it was 5690 nM; in data set [9], 11500 nM. Besides, the “selectivity index (SI) CCHFV” value in data set [2] was 5.69 (> 26). The “virus detection” value in [2] is listed as “no virus detected”. Moreover, the CC50 in [5] was greater than 150000 nM.

In the case of `NC(=O)c1nc(F)c[nH]c1=O` [T-705, favipiravir], in data set [1], the “ZsG fluorescence in initial screen” value was < 30 % of control and the “selectivity index (SI) CCHFV/ZsG” value was 1.03 ± 0.16 (> 50). In data set [1] (setting [11]), the EC50 was found to be 1030 nM. In [2], the “CCHFV titer reduction compared to DMSO only-treated control” value is recorded as “approximately 2 logs”, the “selectivity index (SI) CCHFV” value is reported as 0.88 (> 57), the “virus detection” value was “no virus detected” and the EC50 is 880 nM. The EC50 in data set [9] is 7000 nM. The “efficacy in mouse model of CCHF” value in data set [10] is listed as “higher efficacy than ribavirin”. In addition, in data set [5], the CC50 was greater than 50000 nM and the viability is greater than 80%.
